Source: patent publication US20060135623A1, “Decrease in oxidative stress status through the administration of natural products and pharmaceutical drugs” (priority 2004, published 2006)

Key:
[1] = tested on: C. elegans; assay: Lifespan of C. elegans under agar culture conditions; assay type: in vivo
Experimental: Additional studies to determine the effect of GGA on lifespan were performed using agar culture conditions. […] 100 μM GGA produces an 11% mean and 13% maximum percent increase in lifespan (Pvalue=0.039). The methods described above for the testing of GGA were employed in the testing of the class IIIa compound, LSG 712. […] 100 μM LSG 712 produces an 12% mean percent extension in lifespan (Pvalue=0.055).

[2] = tested on: C. elegans; assay: Age dependent accumulation of lipofuscin pigment in C. elegans (confocal fluorescence); assay type: in vivo; details: for accumulation of lipofuscin: day 8, control about 65
Experimental: The effect of GGA on the age dependent accumulation of lipofuscin pigment was measured in C. elegans after treatment of worms with various concentrations of the drug. Wild type C. elegans were obtained from the University of Minnesota Caenorhabditis Genetics Center. A 250 mM stock of GGA was dissolved in ethanol and then diluted into 1× M9 OP50 worm food solution. Synchronized eggs were placed on plates containing no drug, 5 μM, 50 μM, or 500 μM GGA and allowed to hatch. On day 8, the worms were washed in 9M buffer and placed on a microscope slide. The amount of lipofuscin pigment was measured using a confocal microscope measuring fluorescence at 488 nm. Fluorescent scans were performed to quantify the amount of lipofuscin pigment. The quantification was normalized to the total area size of the worm in nm^2. The effect of LSG 712 on the age dependent accumulation of lipofuscin pigment was measured in C. elegans after treatment of worms with various concentrations of the drug. Synchronized eggs were placed on plates containing no drug and various concentrations of LSG 712 and allowed to hatch. On day 16, the worms were washed in 9M buffer and placed on a microscope slide. The amount of lipofuscin pigment was measured using a confocal microscope measuring fluorescence at 488 nm.

[3] = tested on: C. elegans; assay: Cumulative percent loss of C. elegans cultured on agar plates over time; assay type: in vivo
Experimental: Another assay that can be used to measure lifespan extension in C. elegans is to measure the cumulative percent loss of C. elegans cultured on agar plates over time in the presence of GGA (LSG 711). C. elegans were maintained as described above. […] Lifespan extension in the presence of the class IIIa compound where R2 is acetone (LSG 712) was also measured in C. elegans using the cumulative percent loss of C. elegans over time as an assay. The methods described above for the testing of GGA were employed in the testing of LSG 712.

[4] = tested on: C. elegans; assay: Thermotolerance of C. elegans (35 degrees, SYTOX green fluorescence); assay type: in vivo
Experimental: The thermotolerance experiments were performed by workers at the Buck Institute on Aging in Novato, California under contract with the applicant. The workers at the Buck Institute performed these experiments under the direction and control of the applicant. The method used is that described in Sampayo et al., Aging Cell, 2: 319-326 (2003). In brief, 50 μl of the test compound dilution was added to a 10 ml week old agar plate spotted with 200 μl of concentrated E. coli OP50. The plates were set aside for 2-5 hours to allow the compounds to disperse. Age synchronous worm cultures of wide type (N2 strain) worms were prepared by hypochroride treatment of fertile adults and grown to three days of age at 20° C. The worms were washed off, resuspended in a small volume of S-basal and approximately 1000 worms were spotted onto each compound plate (˜1000 worms per plate) and the plates were incubated at 20° C. for 24 hours. Thermotolerance was measured using a Fluorskan Ascent fluorometer (Thermo Labsystems, MA). The fluorometer temperature was set to 35 °C and the fluorescence was measured in each well every 30 minutes over a 20-24 hour period, with a 20 millisecond integration time for each well. For SYTOX green fluorescence, the excitation wavelength was set to 485 nm and the emission wavelength at 538 nm. Analysis of individual fluorescence curves to determine the time of death was performed using the Fluoroskan Ascent software. Differences in thermotolerance were assessed using the Mantel-Haenszel Logrank test as implemented in Prism (GraphPad Software Inc.). Kaplan-Meier survival curves were generated using Prism survival analysis. […] C. elegans were maintained and handled as described above. The effect of a GGA analogue promoting thermotolerance was tested. The thermotolerance experiments were performed by workers at the Buck Institute on Aging in Novato, California under contract with the applicant. The workers at the Buck Institute performed these experiments under the direction and control of the applicant. […]

[5] = tested on: C. elegans; assay: Survival (life expectancy and lifespan) of C. elegans in liquid culture; assay type: in vivo; details: for life expectancy / lifespan: liquid culture, 25 degrees Celsius; for life expectancy: control 19 days; for lifespan: control 28 days
Experimental: The effect of geranylacetone (GA) and geranylgeranyl acetone (GGA) on the lengthening of lifespan and life expectancy was studied using the model organism, C. elegans, a system that is commonly used to study aging. GA and GGA were tested at three different concentrations of 5 μM 50 μM and 500 μM. The drugs were dissolved in ethanol, and thus ethanol with no drug present was used as the control in these experiments. 100 worms were used to test each concentration of the drug. GA is assumed to be a pure drug at 4.3 M and was dissolved in 100% ethanol. The drug was then diluted in S basal plus cholesterol plus bacteria OP50 such that the final concentration of ethanol on all plates was 1%. GGA was treated as 10% active with an inert carrier. Thus, all treatments were done with a 10-fold increase over the calculated concentration. GGA was suspended in 100% ethanol at 50 degrees Celsius and mixed for about hour after which the supernatant from this mixture was used. The drug was then diluted in S basal plus cholesterol plus bacteria OP50 such that the final concentration of ethanol on all plates was 1%. Wild type N2 C. elegans were obtained from the University of Minnesota Caenorhabditis Genetics Center. All assays were conducted on OP50 (CGCb) using 1× M9 OP50 worm food solution. Survival experiments were carried out in duplicate culture (2 cohorts, 50 worms each) at 25 degrees Celsius. Worms were exposed to the drugs at day 3 of life when set up in liquid culture with OP50 at 10^9 bacteria/ml. Worms were transferred daily for the first six days to remove progeny and to assess mortality. At day 10 and thereafter transfers were done 3 times per week. At each transfer, fresh drug was added to the desired concentration in a manner to achieve a final ethanol concentration of 1%.

[6] = tested on: serum thioredoxin; assay: Serum thioredoxin levels in human volunteers given GGA; assay type: in vivo; details: three 50 mg capsules per day, pre-treatment about 175 ng/ml
Experimental: To test the effect of GGA in providing oxidative stress protection in humans, 2 human volunteers were given three 50 mg capsules of GGA per day. Serum levels of thioredoxin, a protein important in protection from oxidative stress was measured at various time intervals as shown in FIG. 9.

[7] = Extrapolation of C. elegans survival data to human life expectancy and lifespan
Excerpt: The extension of life span in the nematode can also be directly measured. The inventor has discovered that feeding GGA to nematodes increased both the mean and maximum lifespan of the nematode by about 50 percent. The increase in lifespan found in the nematode is equivalent to an increase in human life expectancy from 75 years to about 112 years and human lifespan from 120 years to 180 years.

[8] = feeding to nematodes, summary statement, concentration not given
[9] = extrapolated from C. elegans survival at 500 μM (FIG. 3)

Row | SMILES | mean percent increase in lifespan ([1]; 50 μM) [%] | mean percent increase in lifespan ([1]; 100 μM) [%] | maximum percent increase in protection ([3]; 50 μM) [%] | mean percent increase in protection ([3]; 50 μM) [%] | maximum percent increase in protection ([3]; 100 μM) [%] | mean percent increase in protection ([3]; 100 μM) [%] | life expectancy ([5]; 5 μM) [days] | lifespan ([5]; 5 μM) [days] | life expectancy ([5]; 50 μM) [days] | lifespan ([5]; 50 μM) [days] | further results
1 | CC(=O)/C=C/C=C(\C)CC/C=C(\C)CC/C=C(\C)CCC=C(C)C [LSG 712] | 12 | 12 | 25 | 21 | 20 | 12 | – | – | – | – | reduction in the amount of lipofuscin pigment ([2]; day 16, compared with non-treated control worms, concentration not given): 50%; mean increase in lifespan extension (thermotolerance) ([4]; 100 μM): 19%
2 | CC(=O)CC/C=C(\C)CCC=C(C)C [GA, geranylacetone] | – | – | – | – | – | – | 21 | 32 | 21 | 30 | –
3 | CC(=O)CC/C=C(\C)CC/C=C(\C)CC/C=C(\C)CCC=C(C)C [GGA, Geranylgeranyl acetone] | 11 | 11 | −7 | −4 | 12 | 7 | 21 | 33 | 23 | 35 | life expectancy ([5]; 500 μM): 23 days; lifespan ([5]; 500 μM): 37 days; increase of maximum lifespan of the nematode [5, 8]: about 50%; increase of mean lifespan of the nematode [5, 8]: about 50%; maximum percent increase in lifespan ([1]; 50 μM): 8%; maximum percent increase in lifespan ([1]; 100 μM): 13%; accumulation of lipofuscin ([2]; 5 μM): about 15 autofluorescent intensity/area units; accumulation of lipofuscin ([2]; 50 μM): under 5 autofluorescent intensity/area units; accumulation of lipofuscin ([2]; 500 μM): under 10 autofluorescent intensity/area units; lipofuscin accumulation by confocal fluorescence microscopy (FIG. 5) ([2]; qualitative): reduction of lipofuscin accumulation; serum thioredoxin ([6]; one volunteer, after approximately 32 days): about 275 ng/ml; serum thioredoxin ([6]; second volunteer): about 425 ng/ml; maximum increase in lifespan extension (thermotolerance) ([4]; 500 μM): 27%; mean increase in lifespan extension (thermotolerance) ([4]; 500 μM): 29%; equivalent human life expectancy ([7]; equivalent of nematode lifespan increase, from 75 years): about 112 years; equivalent human lifespan ([7]; equivalent of nematode lifespan increase, from 120 years): 180 years; predicted human life expectancy [7, 9]: 85-100 years; predicted human life span [7, 9]: 120-159 years
